Patent US20110218188A1, “SUBSTITUTED (PYRIDYL)-AZINYLAMINE DERIVATIVES AS FUNGICIDES” (priority 2008, published 2011)

Assay: Measurement of logP values by HPLC on reversed phase columns (EEC directive 79/831 Annex V.A8)
Format: physicochemical
Conditions: pH 2.7

Row | SMILES | logP | chromatographic logP
1 | CNN=C(C)c1cc(-c2ncnc(Nc3cccc(Cl)c3)n2)ccn1 [Example B75] | 2.27 | 
2 | NC(=NO)c1cc(-c2ncnc(Nc3cccc(Cl)c3)n2)ccn1 [Example B78, 4-{4-[(3-chlorophenyl)amino]-1,3,5-triazin-2-yl}-N′-hydroxypyridine-2-carboximidamide] |  | 2.28
3 | CC(=NNCCC#N)c1cc(-c2ncnc(Nc3cccc(Cl)c3)n2)ccn1 [Example B81, 3-{2-[1-(4-{4-[(3-chlorophenyl)amino]-1,3,5-triazin-2-yl}pyridin-2-yl)ethylidene]hydrazinyl}propanenitrile] |  | 2.5
4 | CCCCNC(=O)c1cc(-c2ncnc(Nc3cccc(Cl)c3)n2)ccn1 [Example B93] | 4.11 | 
5 | CCC(C)NC(=O)c1cc(-c2ncnc(Nc3cccc(Cl)c3)n2)ccn1 (stereo not drawn) [Example B94] | 4.04 | 
6 | CCC(CC#N)NC(=O)c1cc(-c2ncnc(Nc3cccc(Cl)c3)n2)ccn1 (stereo not drawn) [Example B95] | 3.35 | 
7 | CCOC(=N)c1cc(-c2ncnc(Nc3cccc(Cl)c3)n2)ccn1 [Example B102, ethyl 4-{4-[(3-chlorophenyl)amino]-1,3,5-triazin-2-yl}pyridine-2-carboximidoate] |  | 2.08
8 | COCC(=O)ON=C(N)c1cc(-c2ncnc(Nc3cccc(Cl)c3)n2)ccn1 [Example B104, 4-{4-[(3-chlorophenyl)amino]-1,3,5-triazin-2-yl}-N′-[(methoxyacetyl)oxy]pyridine-2-carboximidamide] |  | 2.92
9 | O=C(NCCN1CCOCC1)c1cc(-c2ncnc(Nc3cccc(Cl)c3)n2)ccn1 [Example B105] | 1.68 | 
10 | CC(C)CC(=O)O/N=C(/N)c1cc(-c2ncnc(Nc3cccc(Cl)c3)n2)ccn1 [Example B110] | 4.12 | 
11 | CCN(CC)CC(C)NC(=O)c1cc(-c2ncnc(Nc3cccc(Cl)c3)n2)ccn1 (stereo not drawn) [Example B114] | 1.9 | 
12 | O=C(c1cc(-c2ncnc(Nc3cccc(Cl)c3)n2)ccn1)N1CCOCC1 [Example B116] | 2.39 | 
13 | NC(=S)c1cc(-c2ncnc(Nc3cccc(Cl)c3)n2)ccn1 [Example B119] | 3.12 | 
14 | CCCCN(C)C(=O)c1cc(-c2ncnc(Nc3cccc(Cl)c3)n2)ccn1 [Example B123] | 3.48 | 
15 | CCCN(CCC)C(=O)c1cc(-c2ncnc(Nc3cccc(Cl)c3)n2)ccn1 [Example B124] | 3.89 | 
16 | CCCN(CC)C(=O)c1cc(-c2ncnc(Nc3cccc(Cl)c3)n2)ccn1 [Example B125] | 3.46 | 
17 | CCCCN(CCC)C(=O)c1cc(-c2ncnc(Nc3cccc(Cl)c3)n2)ccn1 [Example B126] | 4.31 | 
18 | C=CCN(C)C(=O)c1cc(-c2ncnc(Nc3cccc(Cl)c3)n2)ccn1 [Example B127] | 2.96 | 
19 | CN(CCC#N)C(=O)c1cc(-c2ncnc(Nc3cccc(Cl)c3)n2)ccn1 [Example B129] | 2.51 | 
20 | CCN(CC)C(=O)c1cc(-c2ncnc(Nc3cccc(Cl)c3)n2)ccn1 [Example B130] | 3.06 | 
21 | CCCN(C)C(=O)c1cc(-c2ncnc(Nc3cccc(Cl)c3)n2)ccn1 [Example B132] | 3.06 | 
22 | CN(CC1CC1)C(=O)c1cc(-c2ncnc(Nc3cccc(Cl)c3)n2)ccn1 [Example B133] | 3.15 | 
23 | COC[C@H]1CCCN1C(=O)c1cc(-c2ncnc(Nc3cccc(Cl)c3)n2)ccn1 [Example B134] | 3.08 | 
24 | CN(CCO)C(=O)c1cc(-c2ncnc(Nc3cccc(Cl)c3)n2)ccn1 [Example B136] | 2.04 | 
25 | O=C(c1cc(-c2ncnc(Nc3cccc(Cl)c3)n2)ccn1)N1CCCC(O)C1 (stereo not drawn) [Example B140] | 2.2 | 
26 | CC1CCC(C)N1C(=O)c1cc(-c2ncnc(Nc3cccc(Cl)c3)n2)ccn1 (stereo not drawn) [Example B141] | 3.64 | 
27 | C=CCN(CC=C)C(=O)c1cc(-c2ncnc(Nc3cccc(Cl)c3)n2)ccn1 [Example B143] | 3.67 | 

The next lines start with the values.

Row | logP | chromatographic logP | SMILES
28 | 3.92 |  | COCCN(C)C(=O)c1cc(-c2ncnc(Nc3ccc(F)cc3)n2)ccn1 [Example B22]
29 | 2.8 |  | CCN(C)C(=S)c1cc(-c2ncnc(Nc3ccc(F)cc3)n2)ccn1 [Example B23]
30 | 2.8 |  | COCC(C1CC1)N(C)C(=O)c1cc(-c2ncnc(Nc3ccc(F)cc3)n2)ccn1 (stereo not drawn) [Example B24]
31 | 2.79 |  | COC(=O)c1cc(-c2ncnc(Nc3cccc(Cl)c3)n2)ccn1 [Example B25]
32 |  | 3.32 | CC(=O)c1cc(-c2ncnc(Nc3cccc(Cl)c3)n2)ccn1 [Example B26, 1-(4-{4-[(3-chlorophenyl)amino]-1,3,5-triazin-2-yl}pyridin-2-yl)ethanone]
33 |  | 4.23 | CO/N=C(\C)c1cc(-c2ncnc(Nc3cccc(Cl)c3)n2)ccn1 [Example B27, N-(3-chlorophenyl)-4-{2-[(1E)-N-methoxyethanimidoyl]pyridin-4-yl}-1,3,5-triazin-2-amine]
34 | 2.88 |  | O=C(c1cc(-c2ncnc(Nc3cccc(Cl)c3)n2)ccn1)N1CCCC1 [Example B28]
35 | 3.09 |  | O=C(NCC1CCCO1)c1cc(-c2ncnc(Nc3cccc(Cl)c3)n2)ccn1 (stereo not drawn) [Example B33]
36 | 3.79 |  | CCC(=O)c1cc(-c2ncnc(Nc3cccc(Cl)c3)n2)ccn1 [Example B45]
37 | 3.05 |  | O=C(NC1CC1)c1cc(-c2ncnc(Nc3cccc(Cl)c3)n2)ccn1 [Example B57]
38 | 3.58 |  | CC(=NNCC(F)(F)F)c1cc(-c2ncnc(Nc3cccc(Cl)c3)n2)ccn1 [Example B76]
39 | 3.02 |  | CCOC(=O)CNN=C(C)c1cc(-c2ncnc(Nc3cccc(Cl)c3)n2)ccn1 [Example B77]
40 | 4.97 |  | CC(=NNc1ccc(Cl)cc1)c1cc(-c2ncnc(Nc3cccc(Cl)c3)n2)ccn1 [Example B82]
41 | 3.62 |  | CC(C)NC(=O)c1cc(-c2ncnc(Nc3cccc(Cl)c3)n2)ccn1 [Example B91]
42 | 4.39 |  | CCOC1CCC(NC(=O)c2cc(-c3ncnc(Nc4cccc(Cl)c4)n3)ccn2)CC1 (stereo not drawn) [Example B97]
43 | 3.92 |  | CC(C)=CC(=O)O/N=C(/N)c1cc(-c2ncnc(Nc3cccc(Cl)c3)n2)ccn1 [Example B111]
44 | 3.89 |  | O=C(NC1CCC1)c1cc(-c2ncnc(Nc3cccc(Cl)c3)n2)ccn1 [Example B113]
45 | 3.1 |  | O=C(c1cc(-c2ncnc(Nc3cccc(Cl)c3)n2)ccn1)N1CCCCC1 [Example B115]
46 | 4.54 |  | CCCC(C)NC(=O)c1cc(-c2ncnc(Nc3cccc(Cl)c3)n2)ccn1 (stereo not drawn) [Example B118]
47 | 4.34 |  | CCCCCCN(C)C(=O)c1cc(-c2ncnc(Nc3cccc(Cl)c3)n2)ccn1 [Example B128]
48 | 3.51 |  | CC1CCN(C(=O)c2cc(-c3ncnc(Nc4cccc(Cl)c4)n3)ccn2)CC1 [Example B131]
49 | 3.48 |  | CC1CCCN(C(=O)c2cc(-c3ncnc(Nc4cccc(Cl)c4)n3)ccn2)C1 (stereo not drawn) [Example B135]
50 | 3.78 |  | CC1CCCN(C(=O)c2cc(-c3ncnc(Nc4cccc(Cl)c4)n3)ccn2)C1C (stereo not drawn) [Example B137]
51 | 3.46 |  | O=C(c1cc(-c2ncnc(Nc3cccc(Cl)c3)n2)ccn1)N1CCCCCC1 [Example B138]
52 | 3.8 |  | CCC1CCCCN1C(=O)c1cc(-c2ncnc(Nc3cccc(Cl)c3)n2)ccn1 (stereo not drawn) [Example B139]
53 | 3.39 |  | CC1CCCCN1C(=O)c1cc(-c2ncnc(Nc3cccc(Cl)c3)n2)ccn1 (stereo not drawn) [Example B142]
54 | 3.89 |  | CN(C(=O)c1cc(-c2ncnc(Nc3cccc(Cl)c3)n2)ccn1)C1CCCCC1 [Example B144]
